According to patent US20230279016A1, “Tetrahydropyrazolopyrimidines and Related Analogs for Inhibiting YAP/TAZ-TEAD” (THE KATHOLIEKE UNIVERSITEIT LEUVEN, priority 2021, published 2023):
pEC50: −log10 of the molar value.

test system: YAP/TAZ-TEAD transcription; assay: Reporter gene assay for measuring the inhibition of YAP/TAZ-TEAD transcription (TEAD-responsive element luciferase reporter in Hek293T cells); format: cell-based; conditions: Hek293T cells transiently transfected with TEAD-responsive element luciferase reporter, 24 hours incubation
Experimental: Hek293T cells are cultured in DMEM supplemented with 10% fetal bovine serum, Sodium pyruvate, Sodium bicarbonate, L-glutamine. The cells are harvested and transiently transfected with TEAD-responsive element luciferase reporter. Transfected cells are plated in 384-wells plate containing pre-diluted compounds. After 24 hours incubation at 37° C./5%CO2, assay plates were cooled down to RT and levelled to an equal volume per well, prior to the addition of 25 uL luciferase substrate SteadyLite (Perkin Elmer)/well. The plate was shaken for 10 min at 600 rpm, centrifuged for 1min at 500 rpm and measured with an Envision reader (PerkinElmer). The amount of relative light units produced by the TEAD reporter is used to calculated percent of inhibition.
The percent of reporter inhibition was calculated in the presence of a positive control inhibitor (100% inhibition) versus a condition with the presence of the vehicle basal activity of the reporter (0% inhibition). The ability of a test compound to inhibit this activity was determined as:
Percentage inhibition=[1-((RLU determined in the presence of vehicle—RLU determined for sample with test compound present) divided by (RLU determined in the presence of vehicle — RLU determined for sample with positive control inhibitor))] * 100
The activities of the example compounds tested are depicted in the table below. The activity ranges A, B and C refer to EC50 values in the reporter gene assay as described as follows: “A”: EC50 <1 μM; “B” : 1 μM≤EC50≤20 μM and “C” : EC50>20 μM, NT=not tested.

Row | pEC50 | Structure (SMILES)
1 | > 6.00 | C=CC(=O)NCC1CN(c2ccc(C(F)(F)F)cc2)c2cnc(C(F)(F)F)n2C1 (single isomer, unassigned) [Cpd. No. 094-En2, (R)- or (S)-N-((6-(trifluoromethyl)-1-(4-(trifluoromethyl)phenyl)-1,2,3,4-tetrahydroimidazo[1,5-a]pyrimidin-3-yl)methyl)acrylamide]
2 | > 6.00 | C=CC(=O)NCC1CN(c2ccc(C(F)F)nc2)c2ccnn2C1 (stereo not drawn) [Cpd. No. 010, N-((4-(6-(difluoromethyl)pyridin-3-yl)-4,5,6,7-tetrahydropyrazolo[1,5-a]pyrimidin-6-yl)methyl)acrylamide]
3 | 4.70 to 6.00 | C=CC(=O)NCC1CN(c2ccc(-c3ccccc3)cc2)c2ccnn2C1 (stereo not drawn) [Cpd. No. 017, N-((4-([1,1′-biphenyl]-4-yl)-4,5,6,7-tetrahydropyrazolo[1,5-a]pyrimidin-6-yl)methyl)acrylamide]
4 | > 6.00 | CCC(=O)NCC1CN(c2ccc(C(F)(F)F)cc2)c2ccnn2C1 (stereo not drawn) [Cpd. No. 028, N-((4-(4-(trifluoromethyl)phenyl)-4,5,6,7-tetrahydropyrazolo[1,5-a]pyrimidin-6-yl)methyl)propionamide]
5 | < 4.70 | C=CC(=O)NCC1CN(S(=O)(=O)c2ccc(C(F)(F)F)cc2)c2ccnn2C1 (stereo not drawn) [Cpd. No. 045, N-((4-((4-(trifluoromethyl)phenyl)sulfonyl)-4,5,6,7-tetrahydropyrazolo[1,5-a]pyrimidin-6-yl)methyl)acrylamide]
6 | 4.70 to 6.00 | C=CC(=O)NCC1CN(S(=O)(=O)c2ccc(C(F)(F)F)cc2)c2ccnn2C1 (stereo not drawn) [Cpd. No. 045-En1, N-((4-((4-(trifluoromethyl)phenyl)sulfonyl)-4,5,6,7-tetrahydropyrazolo[1,5-a]pyrimidin-6-yl)methyl)acrylamide]
7 | < 4.70 | C=CC(=O)NCC1CN(S(=O)(=O)c2ccc(C(F)(F)F)cc2)c2ccnn2C1 (stereo not drawn) [Cpd. No. 045-En2, N-((4-((4-(trifluoromethyl)phenyl)sulfonyl)-4,5,6,7-tetrahydropyrazolo[1,5-a]pyrimidin-6-yl)methyl)acrylamide]

same assay, conditions: Homo sapiens, HEK-293T, 24 h, Hek293T cells transiently transfected with TEAD-responsive element luciferase reporter, 24 hours incubation

Row | pEC50 | Structure (SMILES)
8 | > 6.00 | C=CC(=O)NCC1CN(c2ccc(C(F)F)cc2)c2ccnn2C1 (stereo not drawn) [Cpd. No. 009, N-((4-(4-(difluoromethyl)phenyl)-4,5,6,7-tetrahydropyrazolo[1,5-a]pyrimidin-6-yl)methyl)acrylamide]
9 | > 6.00 | C=CC(=O)NCC1CN(c2ccc(SC(F)(F)F)cc2)c2ccnn2C1 (stereo not drawn) [Cpd. No. 020, N-((4-(4-((trifluoromethyl)thio)phenyl)-4,5,6,7-tetrahydropyrazolo[1,5-a]pyrimidin-6-yl)methyl)acrylamide]
10 | < 4.70 | C=CC(=O)NCC1CN(c2cnn(C(F)F)c2)c2ccnn2C1 (stereo not drawn) [Cpd. No. 025, N-((4-(1-(difluoromethyl)-1H-pyrazol-4-yl)-4,5,6,7-tetrahydropyrazolo[1,5-a]pyrimidin-6-yl)methyl)acrylamide]
11 | > 6.00 | C=CC(=O)NCC1CN(c2ccc(OC(F)(F)F)cc2)c2cc(C)nn2C1 (stereo not drawn) [Cpd. No. 030, N-((2-methyl-4-(4-(trifluoromethoxy)phenyl)-4,5,6,7-tetrahydropyrazolo[1,5-a]pyrimidin-6-yl)methyl)acrylamide]
12 | > 6.00 | C=CC(=O)NCC1CN(c2ccc(C(F)(F)F)cc2)c2cc(C#N)nn2C1 (stereo not drawn) [Cpd. No. 033, N-((2-cyano-4-(4-(trifluoromethyl)phenyl)-4,5,6,7-tetrahydropyrazolo[1,5-a]pyrimidin-6-yl)methyl)acrylamide]
13 | > 6.00 | C=CC(=O)NCC1CN(C2CCCCC2)c2ccnn2C1 (stereo not drawn) [Cpd. No. 037, N-((4-cyclohexyl-4,5,6,7-tetrahydropyrazolo[1,5-a]pyrimidin-6-yl)methyl)acrylamide]
14 | < 4.70 | N#CCC(=O)NCC1CN(c2ccc(C(F)(F)F)cc2)c2ccnn2C1 (stereo not drawn) [Cpd. No. 042, 2-cyano-N-((4-(4-(trifluoromethyl)phenyl)-4,5,6,7-tetrahydropyrazolo[1,5-a]pyrimidin-6-yl)methyl)acetamide]
15 | 4.70 to 6.00 | C=CC(=O)NCC1CN(C(=O)C2CCCCC2)c2ccnn2C1 (stereo not drawn) [Cpd. No. 046, N-((4-(cyclohexanecarbonyl)-4,5,6,7-tetrahydropyrazolo[1,5-a]pyrimidin-6-yl)methyl)acrylamide]
16 | < 4.70 | CCC(=O)NCC1CN(Cc2ccc(C(F)(F)F)cc2)c2ccnn2C1 (stereo not drawn) [Cpd. No. 050, N-((4-(4-(trifluoro-methyl)benzyl)-4,5,6,7-tetrahydropyrazolo[1,5-a]pyrimidin-6-yl)-methyl)propionamide]
17 | < 4.70 | CS(=O)(=O)NCC1CN(Cc2ccc(C(F)(F)F)cc2)c2ccnn2C1 (stereo not drawn) [Cpd. No. 051, N-((4-(4-(trifluoro-methyl)benzyl)-4,5,6,7-tetrahydropyrazolo[1,5-a]pyrimidin-6-yl)-methyl)methanesulfonamide]
18 | < 4.70 | CCC(=O)NCC1CN(Cc2cccc(C(F)(F)F)c2)c2ccnn2C1 (stereo not drawn) [Cpd. No. 053, N-((4-(3-(trifluoro-methyl)benzyl)-4,5,6,7-tetrahydropyrazolo[1,5-a]pyrimidin-6-yl)-methyl)propionamide]

The remaining lines, values behind:

Row | Structure (SMILES) | pEC50
19 | C=CC(=O)NCC1CN(c2cccc(C(F)(F)F)c2)c2ccnn2C1 (stereo not drawn) [Cpd. No. 003, N-((4-(3-(trifluoromethyl)phenyl)-4,5,6,7-tetrahydropyrazolo[1,5-a]pyrimidin-6-yl)methyl)acrylamide] | > 6.00
20 | C=CC(=O)NCC1CN(c2cccc(F)c2)c2ccnn2C1 (stereo not drawn) [Cpd. No. 004, N-((4-(3-fluorophenyl)-4,5,6,7-tetrahydropyrazolo[1,5-a]pyrimidin-6-yl)methyl)acrylamide] | > 6.00
21 | C=CC(=O)NCC1CN(c2ccc(F)cc2)c2ccnn2C1 (stereo not drawn) [Cpd. No. 006, N-((4-(4-fluorophenyl)-4,5,6,7-tetrahydropyrazolo[1,5-a]pyrimidin-6-yl)methyl)acrylamide] | > 6.00
22 | C=CC(=O)NCC1CN(c2ccc(OC(F)(F)F)c(F)c2)c2ccnn2C1 (stereo not drawn) [Cpd. No. 018, N-((4-(3-fluoro-4-(trifluoromethoxy)phenyl)-4,5,6,7-tetrahydropyrazolo[1,5-a]pyrimidin-6-yl)methyl)acrylamide] | > 6.00
23 | C#Cc1ccc(N2CC(CNC(=O)C=C)Cn3nccc32)cc1 (stereo not drawn) [Cpd. No. 036, N-((4-(4-ethynylphenyl)-4,5,6,7-tetrahydropyrazolo[1,5-a]pyrimidin-6-yl)methyl)acrylamide] | > 6.00
24 | CN(C)C/C=C/C(=O)NCC1CN(c2ccc(C(F)(F)F)cc2)c2ccnn2C1 (stereo not drawn) [Cpd. No. 041, (E)-4-(dimethylamino)-N-((4-(4-(trifluoromethyl)phenyl)-4,5,6,7-tetrahydropyrazolo[1,5-a]pyrimidin-6-yl)methyl)but-2-enamide] | 4.70 to 6.00
25 | CC(=O)N(CC#N)CC1CN(c2ccc(C(F)(F)F)cc2)c2ccnn2C1 (stereo not drawn) [Cpd. No. 043, N-(cyanomethyl)-N-((4-(4-(trifluoromethyl)phenyl)-4,5,6,7-tetrahydropyrazolo[1,5-a]pyrimidin-6-yl)methyl)acetamide] | < 4.70
26 | C#CCNCC1CN(c2ccc(C(F)(F)F)cc2)c2ccnn2C1 (stereo not drawn) [Cpd. No. 044, N-((4-(4-(trifluoromethyl)phenyl)-4,5,6,7-tetrahydropyrazolo[1,5-a]pyrimidin-6-yl)methyl)prop-2-yn-1-amine] | < 4.70
27 | C=CC(=O)NCC1CN(C(=O)c2ccccc2)c2ccnn2C1 (stereo not drawn) [Cpd. No. 047, N-((4-benzoyl-4,5,6,7-tetrahydropyrazolo[1,5-a]pyrimidin-6-yl)methyl)acrylamide] | < 4.70
